The text below walks through data of patent publication US5618829A, “Tyrosine kinase inhibitors and benzoylacrylamide derivatives” (Mitsubishi Chemical Corporation, priority 1993, dated 1997).

Where two headings read alike, the source gives them in different places.

For one test, the target named is T1, EGF receptor (Homo sapiens, UniProt P00533).
T1 construct: The cell membrane fraction, a partially purified EGF receptor, was used as an enzyme source; endogenous in cells; host or cells: A431 (human epidermoid carcinoma), cell membrane fraction
Kind of test: Tyrosine kinase inhibitory activity (partially purified EGF receptor from A431 cell membrane fraction, RR-SRC peptide substrate). The format is biochemical. Conditions: partially purified EGF receptor from A431 cells, 100 ng EGF, 10 μM γ-32P-ATP, 30 minutes under ice-cooling. As to the method:
(§1) The compounds of the invention were evaluated their tyrosine kinase inhibitory activities with partially purified EGF (epidermal cell growth factor) receptor preparation and cell growth inhibitory activity with human cancer cells.
Tyrosine Kinase Inhibitory Activity
Tyrosine kinase inhibitory activities of the compounds of the invention were determined as the inhibitory activities of the compounds added into the tyrosine kinase activity assay system.
The method employed is detailed below.
A431 cells were cultured in Dulbecco's modified Eagles medium (DMEM) containing 10% fetal calf serum (FCS) at 37° C. under 5% CO2 atmosphere. The cultured cells were homogenated in a solution containing 10 mM N-2-hydroxyethylpiperazino-N'-2-ethane sulfonate buffer (pH 7.4), 0.25M sucrose, and 0.1 mM EDTA, and centrifuged at 3000 xg for 5 minutes. The supernatant was then centrifuged at 10000 xg for 30 minutes to obtain A431 cell membrane fraction. The cell membrane fraction, a partially purified EGF receptor, was used as an enzyme source. A test compound dissolved in dimethylsulfoxide (DMSO) was added to a reaction mixture containing 15 mM Hepes buffer (pH 7.7), 2 mM MnCl2, 10 μM ZnSO4, 50 μM Na3 VO4 and the partially purified EGF receptor preparation (10-15 μg). […] The mixture was allowed to react under […] for 30 minutes, and the reaction was stopped by addition of 10 mg/ml bovine serum albumin and 20% trichloroacetic acid. The reaction mixture was left to stand under ice-cooling for 30 minutes. The mixture was centrifuged at 5000 xg for two minutes, and an aliquot of the supernatant was adsorbed on P81 phosphocellulose filter. The filter was dipped in 30% aqueous acetic acid for 15 minutes for fixation and then washed with 15% acetic acid. The washing was repeated four times. The radioactivity of ^32 P retained on the phosphocellulose filter was counted with liquid scintillation counter.
Tyrosine kinase inhibitory activity (TKIA) was determined according to the following equation:
TKIA(%)={1-(B-C)/(A-C)}×100
The sympols "A", "B" and "C" represent the radioactivities determined in tyrosine kinase assays with test compounds, without a test compound, and without both a test compound and EGF, respectively.

For a further test, the system named is KB cell. Description: Cancer cell growth inhibitory activity (KB cells, MTT). The format is cell-based. The following applies: Homo sapiens, 72 h, read-out: Inhibitory activity (IC50, μM) Cancer cell growth. As to the method: as §1
Cancer Cell Growth Inhibitory Activity
Accordingly, the KB cell was used to evaluate the effect of test compounds on the growth of cultured cancer cells.
KB cells were plated on a 96-well dish (2.5×10^3 cell/well) and cultured for 24 hours at 37° C. under 5% CO2 atmosphere in DMEM:F12 (1:1) medium containing 10% FCS, 50 μg/ml penicillin, and 50 μg/ml streptomycin. To the culture medium was added a test compound dissolved in DMSO (DMSO final concentration<0.1%), and the cells were cultured for three days under the same conditions. The test compound was exchanged every 24 hours together with the culture medium.
The amount of living cells were measured by calorimetric determination at wave lengths of 550 nm and 650 nm after developing colour by MTT reagent, in accordance with the method of Michael C.
Cancer cell growth inhibitory activity (CCGIA) was determined according to the following equation.
Simbols "a" and "b" represent the colorimetric values determined in the cancer cell growth assay with and without the test compounds, respectively.

Where [1] appears, read: KB cells, three days, 37° C., MTT.

T1 sequence (P00533 25-1210): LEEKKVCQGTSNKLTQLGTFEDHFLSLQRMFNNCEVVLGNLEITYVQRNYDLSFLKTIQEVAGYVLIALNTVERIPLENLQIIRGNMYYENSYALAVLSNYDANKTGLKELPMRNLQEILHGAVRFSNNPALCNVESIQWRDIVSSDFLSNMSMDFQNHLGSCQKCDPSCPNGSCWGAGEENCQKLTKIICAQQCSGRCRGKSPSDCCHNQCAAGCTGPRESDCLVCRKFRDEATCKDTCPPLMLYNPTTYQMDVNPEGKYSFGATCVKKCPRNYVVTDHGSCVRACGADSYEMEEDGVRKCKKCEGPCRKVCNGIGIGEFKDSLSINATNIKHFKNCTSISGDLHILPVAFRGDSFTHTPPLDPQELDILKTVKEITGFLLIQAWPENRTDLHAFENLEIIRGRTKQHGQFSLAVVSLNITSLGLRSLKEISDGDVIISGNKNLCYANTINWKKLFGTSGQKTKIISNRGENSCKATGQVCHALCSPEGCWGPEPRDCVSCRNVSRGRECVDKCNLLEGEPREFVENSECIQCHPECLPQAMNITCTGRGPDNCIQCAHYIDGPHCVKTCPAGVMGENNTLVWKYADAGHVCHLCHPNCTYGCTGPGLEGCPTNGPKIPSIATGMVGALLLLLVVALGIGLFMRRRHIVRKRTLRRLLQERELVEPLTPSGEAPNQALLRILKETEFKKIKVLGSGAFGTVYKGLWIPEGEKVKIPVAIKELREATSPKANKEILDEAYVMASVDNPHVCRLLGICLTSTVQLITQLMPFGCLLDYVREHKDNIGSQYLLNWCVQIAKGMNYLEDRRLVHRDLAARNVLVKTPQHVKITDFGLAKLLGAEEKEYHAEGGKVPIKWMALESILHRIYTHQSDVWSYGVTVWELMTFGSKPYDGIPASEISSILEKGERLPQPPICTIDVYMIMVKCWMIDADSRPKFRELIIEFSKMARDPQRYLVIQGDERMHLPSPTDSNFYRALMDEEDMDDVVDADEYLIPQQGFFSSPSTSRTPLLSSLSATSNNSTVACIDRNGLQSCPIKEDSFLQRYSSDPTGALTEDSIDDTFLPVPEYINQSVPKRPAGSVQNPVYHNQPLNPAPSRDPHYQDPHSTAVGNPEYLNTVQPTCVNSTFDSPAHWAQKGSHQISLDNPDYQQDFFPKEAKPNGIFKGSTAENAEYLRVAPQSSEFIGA

Turning to `COc1ccc(C(=O)/C=C/C(N)=O)cc1OC` [Compound 2], the figures for the IC50 at EGF receptor and in the test on KB cell (KB) were 0.32 µM and 0.92 µM, respectively.
For the molecule `COc1ccc(C(=O)/C=C/C(=O)NCc2ccccc2)cc1OC` [Compound 19], the IC50 (as a rule, the point on the concentration scale where inhibition reaches its midpoint) on EGF receptor is 0.79 µM; with KB cell (KB), 0.97 µM.
The matching figures for `COc1ccc(C(=O)/C=C/C(=O)NC2CCCCC2)cc1OC` [Compound 45]: 1 µM and 0.22 µM.
Taken in the same sequence, the figures for `COc1ccc(C(=O)/C=C/C(=O)Nc2ccccc2)cc1` [Compound 58] were 2.2 µM and 0.34 µM.
Turning to `COc1ccc(C(=O)/C=C/C(=O)Nc2ccccc2)cc1OC` [Compound 59], the values for the IC50 against EGF receptor and in the test with KB cell (KB) were 0.54 µM and 0.45 µM, respectively.
Taken in the same sequence, the figures for `O=C(/C=C/C(=O)c1ccc(O)c(O)c1)Nc1ccccc1` [Compound 60] were 1 µM and 1.85 µM.
Consider `COc1cc(C(=O)/C=C/C(=O)Nc2ccccc2)ccc1O` [Compound 61], for which the IC50 is 1.5 µM against EGF receptor and 2 µM in the test on KB cell (setting [1]).
In the case of `COc1cc(C(=O)/C=C/C(=O)Nc2ccccc2)ccc1OC(F)F` [Compound 64], the IC50 on EGF receptor was found to be 1.5 µM; with KB cell (KB) it was 1.1 µM.
Taken in the same sequence, the figures for `COc1cc(C(=O)/C=C/C(=O)Nc2ccccc2)ccc1OCc1ccccc1` [Compound 67] were 13 µM and 0.58 µM.
Take `COc1ccc(C(=O)/C=C/C(=O)Nc2ccccc2Cl)cc1OC` [Compound 71]: the IC50 at EGF receptor and with KB cell (KB) was 1.2 µM each time.
Regarding `COc1ccc(C(=O)/C=C/C(=O)Nc2cccc(Cl)c2)cc1OC` [Compound 74], the IC50 at EGF receptor turned out to be 0.76 µM; in the test on KB cell (setting [1]), 0.7 µM.
For the molecule `O=C(/C=C/C(=O)c1ccc(O)c(O)c1)Nc1cccc(Cl)c1` [Compound 75], the results for the IC50 at EGF receptor and in the test on KB cell (KB) were 4.3 µM and 1.25 µM, respectively.
The matching figures for `COc1ccc(C(=O)/C=C/C(=O)Nc2cccc(C)c2)cc1OC` [Compound 83]: 0.81 µM and 0.95 µM.
Turning to `COc1ccc(C(=O)/C=C/C(=O)NC(=O)c2ccccc2)cc1OC` [Compound 110], the IC50 on EGF receptor was determined as 0.91 µM; with KB cell (KB) it was 11.5 µM.
